{"source": "patent US12360023B2", "about": "“Method of pretreating blood sample” (LABTECHS Inc., priority 2017, dated 2025)", "tested_on": "Streptococcus agalactiae", "experiment": "Viability of bacteria under detergent treatment", "format": "cell-based", "data": [{"compound": "CCCCCCCCCCCCOS(=O)(=O)[O-].[Na+]", "note": "[SDS, sodium dodecyl sulfate]", "values": [{"measurement": "killing of bacteria by detergent", "setting": "SDS concentration 0.05%", "result": "does not kill"}, {"measurement": "killing of bacteria by detergent", "setting": "SDS concentration 0.1% or 0.2%", "result": "largely killed"}]}]}
